Test results taken from US20250179083A1, “TRICYCLIC TRIAZOLO COMPOUNDS AS DGK INHIBITORS” (Incyte Corporation, priority 2023, published 2025).

Legend:
DGKα = biological target: T1, DGKα (Homo sapiens, UniProt P23743); test: In vitro DGKα inhibition assay (ADP-Glo); assay type: biochemical; conditions: His-tagged human recombinant DGKα 0.1 nM, 50 μM ATP, 20 μM DLG, 90 minute incubation
T1 construct: His; purchased Signal Chem D21-10BH
Method: (§1) The DGKα and DGKζ biochemical reactions were performed using His-tagged human recombinant enzymes (Signal Chem, DGKα, #D21-10BH; DGKζ, #D30-10H)) and DLG (Dilauroyl-sn-glycerol) lipid substrate (Signal Chem, #D430-59). ADP-Glo assay was performed using ADP-Glo™ kinase Assay kit (Promega, #V9104). The reactions were carried out in assay buffer containing 40 mM Tris, pH 7.5, 0.1% CHAPS, 0.1% Prionex, 40 mM NaCl, 5 mM MgCl2, 1 mM CaCl2, and 1 mM DTT. DGKα reactions contained 0.1 nM DGKα, 50 μM ATP, and 20 μM DLG. And DGKζ reactions contained 0.4 nM DGKζ, 30 μM ATP, and 20 μM DLG.
(§2) Compounds were added with top concentration of 2 mM with 11 point, 3-fold dilution series. Enzyme solution (contains 2×DGK enzyme concentration in 1× assay buffer) was added to the plate in 2 μL/well volume, followed by 2 μL/well of substrate solution (contains 2× concentration of ATP and DLG substrate in 1× assay buffer). Plates were then centrifuged for 1 min at 1200 RPM and sealed or lidded. For 4 μL reaction volume, test compounds were therefore diluted 100× to final top concentration of 20 μM. After 90 minute incubation, reactions were quenched by addition of 2 μL/well Promega ADP-Glo Reagent, followed by centrifugation and lidding. After 60 min incubation, 2 μL/well Promega Kinase Detection Reagent was added, plates centrifuged, and incubated for 30 min. Plates were then read using Luminescence method on BMG PHERAstar FSX plate reader. Percent inhibition was calculated and IC50s were determined using 4-parameter fit in Genedata Screener. Labcyte Echo acoustic dispenser was used for compound addition, and Formulatrix Tempest liquid handler was used for all reagent dispenses.

DGKζ = biological target: T2, DGKζ (Homo sapiens, UniProt Q13574); test: In vitro DGKζ inhibition assay (ADP-Glo); assay type: biochemical; conditions: His-tagged human recombinant DGKζ 0.4 nM, 30 μM ATP, 20 μM DLG, 90 minute incubation
T2 construct: His; purchased Signal Chem D30-10H
Method: as §1, §2

T1 sequence (P23743 whole entry): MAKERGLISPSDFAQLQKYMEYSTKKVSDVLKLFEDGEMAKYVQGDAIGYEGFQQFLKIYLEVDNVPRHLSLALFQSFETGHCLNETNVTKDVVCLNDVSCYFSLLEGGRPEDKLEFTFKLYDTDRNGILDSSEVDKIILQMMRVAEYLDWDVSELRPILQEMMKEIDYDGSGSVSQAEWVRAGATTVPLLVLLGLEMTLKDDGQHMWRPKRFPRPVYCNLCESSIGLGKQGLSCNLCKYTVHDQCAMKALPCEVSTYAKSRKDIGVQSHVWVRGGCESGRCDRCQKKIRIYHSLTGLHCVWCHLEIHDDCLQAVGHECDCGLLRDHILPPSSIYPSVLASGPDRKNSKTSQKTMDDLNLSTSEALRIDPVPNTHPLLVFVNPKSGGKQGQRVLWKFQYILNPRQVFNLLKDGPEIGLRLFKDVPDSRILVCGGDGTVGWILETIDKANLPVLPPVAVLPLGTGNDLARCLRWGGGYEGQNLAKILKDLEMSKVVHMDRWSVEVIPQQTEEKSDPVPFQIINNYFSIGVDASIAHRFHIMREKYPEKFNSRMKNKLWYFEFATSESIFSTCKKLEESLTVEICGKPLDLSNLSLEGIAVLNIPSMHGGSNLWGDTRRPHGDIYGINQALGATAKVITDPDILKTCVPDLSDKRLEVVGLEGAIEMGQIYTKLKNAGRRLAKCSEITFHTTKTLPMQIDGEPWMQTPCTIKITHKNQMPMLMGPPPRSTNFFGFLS
T2 sequence (Q13574 whole entry): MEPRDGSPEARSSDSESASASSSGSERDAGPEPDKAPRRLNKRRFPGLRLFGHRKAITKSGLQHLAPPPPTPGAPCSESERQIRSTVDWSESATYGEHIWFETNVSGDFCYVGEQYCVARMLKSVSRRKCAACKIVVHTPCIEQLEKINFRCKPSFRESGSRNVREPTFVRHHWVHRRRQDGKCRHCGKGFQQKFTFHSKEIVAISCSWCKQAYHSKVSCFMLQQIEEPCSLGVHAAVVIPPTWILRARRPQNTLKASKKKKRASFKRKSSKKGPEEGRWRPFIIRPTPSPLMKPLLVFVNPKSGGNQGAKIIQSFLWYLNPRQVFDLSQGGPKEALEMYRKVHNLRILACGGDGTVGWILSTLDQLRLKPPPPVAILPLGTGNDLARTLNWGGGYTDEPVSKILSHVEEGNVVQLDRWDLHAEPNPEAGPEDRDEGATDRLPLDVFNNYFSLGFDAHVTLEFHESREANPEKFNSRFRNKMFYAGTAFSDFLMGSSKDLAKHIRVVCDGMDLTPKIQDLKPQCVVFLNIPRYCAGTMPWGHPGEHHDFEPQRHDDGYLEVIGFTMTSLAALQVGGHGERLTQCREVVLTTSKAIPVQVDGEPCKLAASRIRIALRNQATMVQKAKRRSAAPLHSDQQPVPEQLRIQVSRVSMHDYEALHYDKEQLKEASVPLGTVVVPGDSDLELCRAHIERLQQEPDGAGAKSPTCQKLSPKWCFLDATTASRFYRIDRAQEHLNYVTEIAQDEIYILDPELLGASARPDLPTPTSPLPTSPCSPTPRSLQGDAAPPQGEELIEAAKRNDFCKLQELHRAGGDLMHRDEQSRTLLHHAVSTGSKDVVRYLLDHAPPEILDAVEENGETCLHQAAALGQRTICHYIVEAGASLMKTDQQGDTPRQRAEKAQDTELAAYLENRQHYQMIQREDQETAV

Row | SMILES | IC50 (DGKα) [nM] | IC50 (DGKζ) [nM]
1 | C[C@@H]1CN(c2nc3nncn3c3c2ncn3C[C@@H]2CCCO2)[C@@H](C)CN1C(c1ccc(Cl)cn1)c1ccc(Cl)cn1 [Example 20, 4-((2S,5R)-4-(Bis(5-chloropyridin-2-yl)methyl)-2,5-dimethylpiperazin-1-yl)-1-(((S)-tetrahydrofuran-2-yl)methyl)-1H-[1,2,4]triazolo[3,4-b]purine] | < 20 | < 20
2 | COc1ccc(C(C(C)C)N2C[C@H](C)N(c3nc4nncn4c4c3nc(C)n4C[C@@H]3CCCO3)C[C@H]2C)cc1F (stereo partly drawn) [Example 24, 4-((2S,5R)-4-(1-(3-fluoro-4-methoxyphenyl)-2-methylpropyl)-2,5-dimethylpiperazin-1-yl)-2-methyl-1-(((S)-tetrahydrofuran-2-yl)methyl)-1H-[1,2,4]triazolo[3,4-b]purine] | < 20 | < 20
3 | Cc1nc2c(N3C[C@@H](C)N(C(c4ccc(C(F)F)cc4F)C(C)C)C[C@@H]3C)nc3nncn3c2n1C[C@@H]1CCCO1 (stereo partly drawn) [Example 25, 4-((2S,5R)-4-(1-(4-(Difluoromethyl)-2-fluorophenyl)-2-methylpropyl)-2,5-dimethylpiperazin-1-yl)-2-methyl-1-(((S)-tetrahydrofuran-2-yl)methyl)-1H-[1,2,4]triazolo[3,4-b]purine] | < 20 | < 20
4 | Cc1nc2c(N3C[C@@H](C)N([C@H](c4ccc(Br)cc4F)C(C)C)C[C@@H]3C)nc3nncn3c2n1C[C@@H]1CCCO1 [Example 26, 4-((2S,5R)-4-((S)-1-(4-Bromo-2-fluorophenyl)-2-methylpropyl)-2,5-dimethylpiperazin-1-yl)-2-methyl-1-(((S)-tetrahydrofuran-2-yl)methyl)-1H-[1,2,4]triazolo[3,4-b]purine] | < 20 | < 20
5 | Cc1nc2c(N3C[C@@H](C)N([C@@H](c4ccc(Br)cc4F)C(C)C)C[C@@H]3C)nc3nncn3c2n1C[C@@H]1CCCO1 [Example 27, 4-((2S,5R)-4-((R)-1-(4-bromo-2-fluorophenyl)-2-methylpropyl)-2,5-dimethylpiperazin-1-yl)-2-methyl-1-(((S)-tetrahydrofuran-2-yl)methyl)-1H-[1,2,4]triazolo[3,4-b]purine] | < 20 | < 20
6 | Cc1nc2c(N3C[C@@H](C)N([C@H](c4ccc(Cl)cc4F)C(C)C)C[C@@H]3C)nc3nncn3c2n1C[C@@H]1CCCO1 [Example 28, 4-((2S,5R)-4-((S)-1-(4-Chloro-2-fluorophenyl)-2-methylpropyl)-2,5-dimethylpiperazin-1-yl)-2-methyl-1-(((S)-tetrahydrofuran-2-yl)methyl)-1H-[1,2,4]triazolo[3,4-b]purine] | < 20 | < 20
7 | Cc1nc2c(N3C[C@@H](C)N([C@@H](c4ccc(Cl)cc4F)C(C)C)C[C@@H]3C)nc3nncn3c2n1C[C@@H]1CCCO1 [Example 29, 4-((2S,5R)-4-((R)-1-(4-chloro-2-fluorophenyl)-2-methylpropyl)-2,5-dimethylpiperazin-1-yl)-2-methyl-1-(((S)-tetrahydrofuran-2-yl)methyl)-1H-[1,2,4]triazolo[3,4-b]purine] | < 20 | < 20
8 | C[C@@H]1CN(c2nc3nncn3c3c2ncn3C[C@@H]2CCCO2)[C@@H](C)CN1C(c1ccc(Cl)cc1F)C1CC(F)(F)C1 (stereo partly drawn) [Example 31, 4-((2S,5R)-4-((4-Chloro-2-fluorophenyl)(3,3-difluorocyclobutyl)methyl)-2,5-dimethylpiperazin-1-yl)-1-(((S)-tetrahydrofuran-2-yl)methyl)-1H-[1,2,4]triazolo[3,4-b]purine] | < 20 | < 20
9 | CC[C@@H]1CN(c2nc3nncn3c3c2nc(C)n3C[C@@H]2CCCO2)[C@@H](C)CN1Cc1ccc(C(F)(F)F)cc1 [Example 36, 4-((2S,5R)-5-Ethyl-2-methyl-4-(4-(trifluoromethyl)benzyl)piperazin-1-yl)-2-methyl-1-(((S)-tetrahydrofuran-2-yl)methyl)-1H-[1,2,4]triazolo[3,4-b]purine] | < 20 | < 20
10 | Cc1nc2c(N3C[C@@H](C)N(Cc4ccc(C(F)(F)F)cc4F)C[C@@H]3C)nc3nncn3c2n1C[C@@H]1CCCO1 [Example 37, 4-((2S,5R)-4-(2-Fluoro-4-(trifluoromethyl)benzyl)-2,5-dimethylpiperazin-1-yl)-2-methyl-1-(((S)-tetrahydrofuran-2-yl)methyl)-1H-[1,2,4]triazolo[3,4-b]purine] | < 20 | < 20
11 | C[C@@H]1CN(c2nc3nncn3c3c2ncn3C[C@@H]2CCCO2)[C@@H](C)CN1Cc1ccc(C(F)(F)F)cc1F [Example 38, 4-((2S,5R)-4-(2-Fluoro-4-(trifluoromethyl)benzyl)-2,5-dimethylpiperazin-1-yl)-1-(((S)-tetrahydrofuran-2-yl)methyl)-1H-[1,2,4]triazolo[3,4-b]purine] | < 20 | < 20
12 | Cc1nc2c(N3C[C@@H](C)N(Cc4ccc(C(F)(F)F)cc4)C[C@@H]3C)nc3nncn3c2n1C[C@@H]1CCCO1 [Example 39, 4-((2S,5R)-2,5-Dimethyl-4-(4-(trifluoromethyl)benzyl)piperazin-1-yl)-2-methyl-1-(((S)-tetrahydrofuran-2-yl)methyl)-1H-[1,2,4]triazolo[3,4-b]purine] | < 20 | < 20

Next, values leading:

Row | IC50 (DGKα) [nM] | IC50 (DGKζ) [nM] | SMILES
13 | < 20 | < 20 | C[C@@H]1CN(c2nc3nncn3c3c2ncn3C[C@@H]2CCCO2)[C@@H](C)CN1C(c1ccc(Cl)c(F)c1)C1CC(F)(F)C1 (stereo partly drawn) [Example 30, 4-((2S,5R)-4-((4-Chloro-3-fluorophenyl)(3,3-difluorocyclobutyl)methyl)-2,5-dimethylpiperazin-1-yl)-1-(((S)-tetrahydrofuran-2-yl)methyl)-1H-[1,2,4]triazolo[3,4-b]purine]
14 | < 20 | < 20 | C[C@@H]1CN(c2nc3nncn3c3c2ncn3C[C@@H]2CCCO2)[C@@H](C)CN1C(c1ccc(Cl)cc1)C1CC(F)(F)C1 (stereo partly drawn) [Example 32, 4-((2S,5R)-4-((4-Chlorophenyl)(3,3-difluorocyclobutyl)methyl)-2,5-dimethylpiperazin-1-yl)-1-(((S)-tetrahydrofuran-2-yl)methyl)-1H-[1,2,4]triazolo[3,4-b]purine]
15 | < 20 | < 20 | C[C@@H]1CN(c2nc3nncn3c3c2ncn3C[C@@H]2CCCO2)[C@@H](C)CN1C(c1ccc(Br)cc1)C1CC(F)(F)C1 (stereo partly drawn) [Example 33, 4-((2S,5R)-4-((4-Bromophenyl)(3,3-difluorocyclobutyl)methyl)-2,5-dimethylpiperazin-1-yl)-1-(((S)-tetrahydrofuran-2-yl)methyl)-1H-[1,2,4]triazolo[3,4-b]purine]
16 | < 20 | < 20 | CC[C@@H]1CN(c2nc3nncn3c3c2ncn3C[C@@H]2CCCO2)[C@@H](C)CN1C(c1ccc(Cl)cc1)C1CC(F)(F)C1 (stereo partly drawn) [Example 34, 4-((2S,5R)-4-((4-Chlorophenyl)(3,3-difluorocyclobutyl)methyl)-5-ethyl-2-methylpiperazin-1-yl)-1-(((S)-tetrahydrofuran-2-yl)methyl)-1H-[1,2,4]triazolo[3,4-b]purine]
17 | < 20 | < 20 | CC[C@@H]1CN(c2nc3nncn3c3c2ncn3C[C@@H]2CCCO2)[C@@H](C)CN1C(c1ccc(C(F)(F)F)cc1)C1CC(F)(F)C1 (stereo partly drawn) [Example 35, 4-((2S,5R)-4-((3,3-Difluorocyclobutyl)(4-(trifluoromethyl)phenyl)methyl)-5-ethyl-2-methylpiperazin-1-yl)-1-(((S)-tetrahydrofuran-2-yl)methyl)-1H-[1,2,4]triazolo[3,4-b]purine]
